{
  "source": "patent US20220098203A1",
  "about": "(priority 2018, published 2022)",
  "key": {"HCT116 MTAP+/+": {"system": "HCT116 MTAP+/+", "assay": "Inhibition of cellular proliferation (Cell Titer Glo), HCT116 MTAP+/+", "assay_type": "cell-based", "conditions": "Homo sapiens, HCT-116, 96 h, Table 5a, 4 days, read-out: 4 Day Relative Growth Inhibition (MTAP +/+)", "procedure,_shortened": "(§1)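 After 4 days of compound exposure at 37 °C, starting 24 h after plating, growth of the MTAP-wildtype and MTAP-deleted HCT116 pair was measured as ATP luminescence (CellTiter-Glo). The proliferation index was signal minus no-cell blank, divided by blank-corrected 0.2% DMSO control.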"}, "HCT116 MTAP-/-": {"system": "HCT116 MTAP-/-", "assay": "Inhibition of cellular proliferation (Cell Titer Glo), HCT116 MTAP-/-", "assay_type": "cell-based, human", "conditions": "Homo sapiens, HCT-116, 96 h, Table 5a, 4 days, read-out: 4 Day Relative Growth Inhibition (MTAP −/−)", "procedure,_shortened": "as §1"}, "MAT2A homodimer": {"target": "T1, MAT2A homodimer (Homo sapiens, UniProt P31153)", "T1 construct": "inferred from the Ni sepharose purification and imidazole elution; made in house; host or cells: SF9 insect cells, recombinant baculovirus (Bac to Bac, pFASTBAC1)", "T1 sequence (P31153 whole entry)": "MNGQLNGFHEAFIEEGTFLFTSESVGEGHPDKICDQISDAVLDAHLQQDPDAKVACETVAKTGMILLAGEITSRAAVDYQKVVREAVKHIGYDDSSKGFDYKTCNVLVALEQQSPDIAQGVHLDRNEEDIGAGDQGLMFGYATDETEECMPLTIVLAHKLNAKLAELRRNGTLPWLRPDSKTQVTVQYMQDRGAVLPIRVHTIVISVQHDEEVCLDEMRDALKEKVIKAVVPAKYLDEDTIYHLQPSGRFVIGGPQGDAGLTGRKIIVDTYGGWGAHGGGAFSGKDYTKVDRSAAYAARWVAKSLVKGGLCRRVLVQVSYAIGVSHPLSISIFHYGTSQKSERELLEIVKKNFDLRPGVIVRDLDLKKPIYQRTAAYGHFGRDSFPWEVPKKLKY", "assay": "MAT2A biochemical assay (liberated phosphate, PiColorLock Gold)", "conditions": "Table 5a; MAT2A biochemical assay; read-out: Enzyme Inhibition", "procedure,_shortened": "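Readout is liberated phosphate (PiColorLock Gold), stoichiometric with SAM production, quantified against a potassium phosphate standard curve. Enzyme: recombinant MAT2A homodimer from Sf9, equilibrated 60 min at 25 °C with compound before 60 min reaction with substrate mix containing 500 μM ATP and 400 μM L-methionine.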"}, "[1]": {"system": "SAM in HCT116 MTAP-deleted cells", "assay": "Cellular assay of target engagement (SAM), LC-MS/MS", "assay_type": "cell-based, human", "conditions": "Homo sapiens, HCT-116, Table 5a, 72 h, read-out: Cell 72 h SAM Inhibition (MTAP −/−)", "procedure,_shortened": "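Target engagement was read as intracellular SAM, measured by LC-MS/MS with d3-SAM as internal standard in methanol/acetic acid extracts. These came from MTAP-deleted HCT116 colon carcinoma cells exposed to inhibitor for 72 hrs.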"}},
  "data": [
    {"smiles": "[2H]C([2H])([2H])Oc1ccc(N2C(=O)N(c3ccc4nn(C([2H])([2H])[2H])cc4c3)Cc3cnc(NCC(F)(F)F)nc32)cc1", "note": "[Example 423, 1-(4-(methoxy-d3)phenyl)-3-(2-(methyl-d3)-2H-indazol-5-yl)-7-((2,2,2-trifluoroethyl)amino)-3,4-dihydropyrimido[4,5-d]pyrimidin2(1H)-one]", "values": [
      {"measurement": "IC50", "setting": "HCT116 MTAP+/+", "value": "> 1000", "unit": "nM"},
      {"measurement": "IC50", "setting": "HCT116 MTAP-/-", "value": "< 100", "unit": "nM"},
      {"measurement": "IC50", "setting": "MAT2A homodimer", "value": "< 100", "unit": "nM"},
      {"measurement": "IC50", "setting": "[1]", "value": "< 100", "unit": "nM"}
    ]},
    {"smiles": "Cc1nc2ccc(N3Cc4cnc(NCC(F)(F)F)nc4N(c4ccc(OC(F)F)cc4)C3=O)cc2n1C", "note": "[Example 424]", "values": [
      {"measurement": "IC50", "setting": "HCT116 MTAP+/+", "value": "> 1000", "unit": "nM"},
      {"measurement": "IC50", "setting": "HCT116 MTAP-/-", "value": "100 to 1000", "unit": "nM"},
      {"measurement": "IC50", "setting": "MAT2A homodimer", "value": "< 100", "unit": "nM"},
      {"measurement": "IC50", "setting": "[1]", "value": "< 100", "unit": "nM"}
    ]},
    {"smiles": "Cn1cc2cc(N3Cc4cnc(NCC(F)(F)F)nc4N(c4ccc(Br)cc4)C3=O)ccc2n1", "note": "[Example 425, 1-(4-bromophenyl)-3-(2-methyl-2H-indazol-5-yl)-7-((2,2,2-trifluoroethyl)amino)-3,4-dihydropyrimido[4,5-d]pyrimidin-2(1H)-one]", "values": [
      {"measurement": "IC50", "setting": "HCT116 MTAP+/+", "value": "> 1000", "unit": "nM"},
      {"measurement": "IC50", "setting": "HCT116 MTAP-/-", "value": "< 100", "unit": "nM"},
      {"measurement": "IC50", "setting": "MAT2A homodimer", "value": "< 100", "unit": "nM"},
      {"measurement": "IC50", "setting": "[1]", "value": "< 100", "unit": "nM"}
    ]},
    {"smiles": "Cn1cc2cc(N3Cc4ncc(NCC(F)(F)F)cc4N(c4ccc(OC(F)F)cc4)C3=O)ccc2n1", "note": "[Example 428, 1-(4-(difluoromethoxy)phenyl)-3-(2-methyl-2H-indazol-5-yl)-7-((2,2,2-trifluoroethyl)amino)-3,4-dihydropyrido[3,2-d]pyrimidin-2(1H)-one]", "values": [
      {"measurement": "IC50", "setting": "HCT116 MTAP+/+", "value": "> 1000", "unit": "nM"},
      {"measurement": "IC50", "setting": "HCT116 MTAP-/-", "value": "< 100", "unit": "nM"},
      {"measurement": "IC50", "setting": "MAT2A homodimer", "value": "< 100", "unit": "nM"},
      {"measurement": "IC50", "setting": "[1]", "value": "< 100", "unit": "nM"}
    ]},
    {"smiles": "CO[C@H]1CC[C@H](N2C(=O)N(c3ccc4nn(C)cc4c3)Cc3ccc(OCC(F)F)nc32)CC1", "note": "[Example 429, 7-(2,2-difluoroethoxy)-1-(trans-4-methoxycyclohexyl)-3-(2-methyl-2H-indazol-5-yl)-3,4-dihydropyrido[2,3-d]pyrimidin-2(1H)-one]", "values": [
      {"measurement": "IC50", "setting": "HCT116 MTAP+/+", "value": "> 1000", "unit": "nM"},
      {"measurement": "IC50", "setting": "HCT116 MTAP-/-", "value": "100 to 1000", "unit": "nM"},
      {"measurement": "IC50", "setting": "MAT2A homodimer", "value": "< 100", "unit": "nM"},
      {"measurement": "IC50", "setting": "[1]", "value": "100 to 1000", "unit": "nM"}
    ]},
    {"smiles": "[2H]C([2H])([2H])Oc1ccc(N2C(=O)N(c3ccc4nn(C)cc4c3)Cc3c(N)nc(NCC(F)(F)F)nc32)cc1", "note": "[Example 430, 5-amino-1-(4-(methoxy-d3)phenyl)-3-(2-methyl-2H-indazol-5-yl)-7-((2,2,2-trifluoroethyl)amino)-3,4-dihydropyrimido[4,5-d]pyrimidin-2(1H)-one]", "values": [
      {"measurement": "IC50", "setting": "HCT116 MTAP+/+", "value": "> 1000", "unit": "nM"},
      {"measurement": "IC50", "setting": "HCT116 MTAP-/-", "value": "< 100", "unit": "nM"},
      {"measurement": "IC50", "setting": "MAT2A homodimer", "value": "< 100", "unit": "nM"},
      {"measurement": "IC50", "setting": "[1]", "value": "< 100", "unit": "nM"}
    ]},
    {"smiles": "[2H]C([2H])([2H])Oc1ccc(N2C(=O)N(c3ccc4nc(OC)n(C)c4c3)Cc3ccc(OCC(F)F)nc32)cc1", "note": "[Example 431, 7-(2,2-difluoroethoxy)-3-(2-methoxy-1-methyl-1H-benzo[d]imidazol-6-yl)-1-(4-(methoxy-d3)phenyl)-3,4-dihydropyrido[2,3-d]pyrimidin-2(1H)-one]", "values": [
      {"measurement": "IC50", "setting": "HCT116 MTAP+/+", "value": "> 1000", "unit": "nM"},
      {"measurement": "IC50", "setting": "HCT116 MTAP-/-", "value": "100 to 1000", "unit": "nM"},
      {"measurement": "IC50", "setting": "MAT2A homodimer", "value": "< 100", "unit": "nM"},
      {"measurement": "IC50", "setting": "[1]", "value": "< 100", "unit": "nM"}
    ]},
    {"smiles": "[2H]C([2H])([2H])Oc1ccc(N2C(=O)N(c3ccc4nn(C)cc4c3)Cc3c(NC)nc(NCC(F)(F)F)nc32)cc1", "note": "[Example 432, 1-(4-(methoxy-d3)phenyl)-3-(2-methyl-2H-indazol-5-yl)-5-(methylamino)-7-((2,2,2-trifluoroethyl)amino)-3,4-dihydropyrimido[4,5-d]pyrimidin-2(1H)-one]", "values": [
      {"measurement": "IC50", "setting": "HCT116 MTAP+/+", "value": "> 1000", "unit": "nM"},
      {"measurement": "IC50", "setting": "HCT116 MTAP-/-", "value": "< 100", "unit": "nM"},
      {"measurement": "IC50", "setting": "MAT2A homodimer", "value": "< 100", "unit": "nM"},
      {"measurement": "IC50", "setting": "[1]", "value": "< 100", "unit": "nM"}
    ]},
    {"smiles": "[2H]C([2H])([2H])Oc1ccc(N2C(=O)N(c3ccc4nc(C)n(C)c4c3)Cc3ccc(OC(C)C)nc32)cc1", "note": "[Example 434, 3-(1,2-dimethyl-1H-benzo[d]imidazol-6-yl)-7-isopropoxy-1-(4-(methoxy-d3)phenyl)-3,4-dihydropyrido[2,3-d]pyrimidin-2(1H)-one]", "values": [
      {"measurement": "IC50", "setting": "HCT116 MTAP+/+", "value": "100 to 1000", "unit": "nM"},
      {"measurement": "IC50", "setting": "HCT116 MTAP-/-", "value": "< 100", "unit": "nM"},
      {"measurement": "IC50", "setting": "MAT2A homodimer", "value": "< 100", "unit": "nM"},
      {"measurement": "IC50", "setting": "[1]", "value": "< 100", "unit": "nM"}
    ]}
  ]
}
